biological target: T1, KRAS G12C 1-169, his-tagged protein, GDP-loaded (Homo sapiens, UniProt P01116, G12C); experiment: Covalent binding (% modification) to KRAS G12C by mass spectrometry; details: covalent binding to KRAS G12C after a three minute incubation period; note: test concentration or dose not given here
T1 construct: KRAS G12C 1-169, his-tagged protein, GDP-loaded

SMILES | Binding %
C=CC(=O)N1C[C@H](C)N(c2nc(COCc3ncccc3F)nc3c(F)c(-c4c(C)ccc5[nH]ncc45)c(Cl)cc23)C[C@H]1C [Compound 142, 1-((2R,5S)-4-(6-chloro-8-fluoro-2-(((3-fluoro-pyridin-2-yl)methoxy)methyl)-7-(5-methyl-1H-indazol-4-yl)quinazolin-4-yl)-2,5-dimethyl-piperazin-1-yl) prop-2-en-1-one] | ++ (++ indicates binding activity from 50 to 90%)
C=CC(=O)N1C[C@H](C)N(c2nc(N3CC(N(C)C4CCC4)C3)nc3c(F)c(-c4c(C)ccc5[nH]ncc45)c(Cl)cc23)C[C@H]1C [Compound 143, 1-((2R,5S)-4-(6-chloro-2-(3-(cyclobutyl (methyl)amino)azetidin-1-yl)-8-fluoro-7-(5-methyl-1H-indazol-4-yl)quinazolin-4-yl)-2,5-dimethyl-piperazin-1-yl) prop-2-en-1-one] | +++ (+++ indicates binding activity greater than 90%)
C=CC(=O)N1C[C@H](C)N(c2nc(N3CC(N(C)C4CCC4)C3)nc3c(F)c(-c4c(C)ccc5cn[nH]c45)c(Cl)cc23)C[C@H]1C [Compound 144, 1-((2R,5S)-4-(6-chloro-2-(3-(cyclobutyl (methyl)amino)azetidin-1-yl)-8-fluoro-7-(6-methyl-1H-indazol-7-yl)quinazolin-4-yl)-2,5-dimethyl-piperazin-1-yl) prop-2-en-1-one] | +++ (+++ indicates binding activity greater than 90%)
C=CC(=O)N1C[C@H](C)N(c2nc(NC3CCN(C4CC4)CC3)nc3c(F)c(-c4c(C)ccc5cn[nH]c45)c(Cl)cc23)C[C@H]1C [Compound 145, 1-((2R,5S)-4-(6-chloro-2-((1-cyclopropyl-piperidin-4-yl)amino)-8-fluoro-7-(6-methyl-1H-indazol-7-yl)quinazolin-4-yl)-2,5-dimethyl-piperazin-1-yl) prop-2-en-1-one] | ++ (++ indicates binding activity from 50 to 90%)
C=CC(=O)N1C[C@H](C)N(c2nc(N3CC(N(C)C)C3)nc3c(F)c(-c4cc5ccccc5cc4O)c(Cl)cc23)C[C@H]1C [Compound 146, 1-((2R,5S)-4-(6-chloro-2-(3-(dimethylamino)azetidin-1-yl)-8-fluoro-7-(3-hydroxynaphthalen-2-yl)quinazolin-4-yl)-2,5-dimethyl-piperazin-1-yl) prop-2-en-1-one] | + (+ indicates binding activity greater than 0% and up to 50%)
C=CC(=O)N1C[C@H](C)N(c2nc(N3CC(N(C)C)C3)nc3c(F)c(-c4cc(O)cc5ccccc45)c(Cl)cc23)C[C@H]1C [Compound 147, 1-((2R,5S)-4-(6-chloro-2-(3-(dimethylamino)azetidin-1-yl)-8-fluoro-7-(3-hydroxynaphthalen-1-yl)quinazolin-4-yl)-2,5-dimethyl-piperazin-1-yl) prop-2-en-1-one] | +++ (+++ indicates binding activity greater than 90%)
C#CCN(C)C1CN(c2nc(N3C[C@@H](C)N(C(=O)C=C)C[C@@H]3C)c3cc(Cl)c(-c4c(C)ccc5cn[nH]c45)c(F)c3n2)C1 [Compound 148, 1-((2R,5S)-4-(6-chloro-8-fluoro-2-(3-(methyl (prop-2-yn-1-yl)amino)azetidin-1-yl)-7-(6-methyl-1H-indazol-7-yl)quinazolin-4-yl)-2,5-dimethyl-piperazin-1-yl) prop-2-en-1-one] | ++ (++ indicates binding activity from 50 to 90%)
C=CC(=O)N1C[C@H](C)N(c2nc(N3CC4(CCN(C5CC5)C4)C3)nc3c(F)c(-c4c(O)cccc4F)c(Cl)cc23)C[C@H]1C [Compound 149, 1-((2R,5S)-4-(6-chloro-2-(6-cyclopropyl-2,6-diazaspiro[3.4]octan-2-yl)-8-fluoro-7-(2-fluoro-6-hydroxyphenyl)quinazolin-4-yl)-2,5-dimethyl-piperazin-1-yl) prop-2-en-1-one] | ++ (++ indicates binding activity from 50 to 90%)
C=CC(=O)N1CCN(c2nc(N3CC(C)(N(C)C)C3)nc3c(F)c(-c4c(C)ccc5[nH]ncc45)c(Cl)cc23)[C@@H](C)C1 [Compound 150, 1-((3S)-4-(6-chloro-2-(3-(dimethylamino)-3-methylazetidin-1-yl)-8-fluoro-7-(5-methyl-1H-indazol-4-yl)quinazolin-4-yl)-3-methyl-piperazin-1-yl) prop-2-en-1-one] | +++ (+++ indicates binding activity greater than 90%)
C=CC(=O)N1CCN(c2nc(N3CC(C)(N(C)C)C3)nc3c(F)c(-c4c(O)cccc4F)c(Cl)cc23)[C@@H](C)C1 [Compound 153, 1-((3S)-4-(6-chloro-2-(3-(dimethylamino)-3-methylazetidin-1-yl)-8-fluoro-7-(2-fluoro-6-hydroxyphenyl)quinazolin-4-yl)-3-methyl-piperazin-1-yl) prop-2-en-1-one] | +++ (+++ indicates binding activity greater than 90%)
C=CC(=O)N1C[C@H](C)N(c2nc(OCCCN(CC)CC)nc3c(F)c(-c4c(O)cccc4F)c(Cl)cc23)C[C@H]1C [Compound 158, 1-((2R,5S)-4-(6-chloro-2-(3-(diethylamino)propoxy)-8-fluoro-7-(2-fluoro-6-hydroxyphenyl)quinazolin-4-yl)-2,5-dimethyl-piperazin-1-yl) prop-2-en-1-one] | +++ (+++ indicates binding activity greater than 90%)
C=CC(=O)N1C[C@H](C)N(c2nc(N3CC4(CCOCC4)C3)nc3c(F)c(-c4c(O)cccc4F)c(Cl)cc23)C[C@H]1C [Compound 159, 1-((2R,5S)-4-(6-chloro-8-fluoro-7-(2-fluoro-6-hydroxyphenyl)-2-(7-oxa-2-azaspiro[3.5]nonan-2-yl)quinazolin-4-yl)-2,5-dimethyl-piperazin-1-yl) prop-2-en-1-one] | ++ (++ indicates binding activity from 50 to 90%)
C=CC(=O)N1C[C@H](C)N(c2nc(N3CC(N(C)C)C3)nc3c(F)c(-c4cc(Cl)ccc4F)c(Cl)cc23)C[C@H]1C [Compound 160, 1-((2R,5S)-4-(6-chloro-7-(5-chloro-2-fluoro-phenyl)-2-(3-(dimethylamino)azetidin-1-yl)-8-fluoroquinazolin-4-yl)-2,5-dimethyl-piperazin-1-yl) prop-2-en-1-one] | ++ (++ indicates binding activity from 50 to 90%)
C=CC(=O)N1C[C@H](C)N(c2nc(N3CC(N(C)C)C3)nc3c(F)c(-c4ccc(Cl)cc4F)c(Cl)cc23)C[C@H]1C [Compound 161, 1-((2R,5S)-4-(6-chloro-7-(4-chloro-2-fluoro-phenyl)-2-(3-(dimethylamino)azetidin-1-yl)-8-fluoroquinazolin-4-yl)-2,5-dimethyl-piperazin-1-yl) prop-2-en-1-one] | + (+ indicates binding activity greater than 0% and up to 50%)
C=CC(=O)N1C[C@H](C)N(c2nc(N3CC4(CCOCC4)C3)nc3c(F)c(-c4c(C)ccc5[nH]ncc45)c(Cl)cc23)C[C@H]1C [Compound 162, 1-((2R,5S)-4-(6-chloro-8-fluoro-7-(5-methyl-1H-indazol-4-yl)-2-(7-oxa-2-azaspiro[3.5]nonan-2-yl)quinazolin-4-yl)-2,5-dimethyl-piperazin-1-yl) prop-2-en-1-one] | + (+ indicates binding activity greater than 0% and up to 50%)
